Key:
[1] = target: T1, SHBG (Homo sapiens, UniProt P04278); assay: Concentration dependence: remaining SHBG activity to 5α-dihydrotestosterone (DHT) with varying concentrations of the compounds; type: binding; settings: DHT concentration of 9.6 nM
T1 sequence (P04278 30-402): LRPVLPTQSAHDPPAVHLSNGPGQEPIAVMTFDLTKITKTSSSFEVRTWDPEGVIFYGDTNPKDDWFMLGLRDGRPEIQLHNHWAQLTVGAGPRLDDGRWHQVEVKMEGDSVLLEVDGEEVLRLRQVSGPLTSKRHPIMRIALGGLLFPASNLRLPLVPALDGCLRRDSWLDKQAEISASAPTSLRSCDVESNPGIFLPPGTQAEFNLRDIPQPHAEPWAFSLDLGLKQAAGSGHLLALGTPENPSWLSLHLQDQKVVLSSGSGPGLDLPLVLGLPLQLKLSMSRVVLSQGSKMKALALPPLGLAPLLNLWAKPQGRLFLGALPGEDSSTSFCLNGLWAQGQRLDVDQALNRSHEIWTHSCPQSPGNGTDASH
Experimental: In order to determine the strength of the interaction of the compounds produced according to the present invention, tests were carried out investigating remaining SHBG activity to 5α-dihydrotestosterone (DHT) with varying concentrations of the compounds, DHT being a natural hormone that binds with SHBG.

[2] = target: T1, SHBG; assay: Estimation of equilibrium (association) constants Ka inhibitor/SHBG, assuming competitive binding; settings: association constant inhibitor/SHBG; Table 3
Text: With the assumption of competitive binding the estimation of equilibrium constants is possible. Two reactions exist in competition with one another: [drawing 50] [drawing 51]

SMILES | Remaining SHBG Activity ([1]; @ 3.2*10^-4M compound) | Ka [2] | Remaining SHBG Activity ([1]; @ 6*10^-4M compound) | Remaining SHBG Activity ([1]; @ 6.2*10^-4M compound)
COc1cc(CC(CO)C(CO)Cc2ccc(O)c(OC)c2)ccc1O (centres unmarked) [IIIa] | 50 % @ 3.2*10^-4M | 20000 M⁻¹ | – | –
COC(=O)C(Cc1ccc(O)c(OC)c1)C(Cc1ccc(O)c(OC)c1)C(=O)OC (centres unmarked) [IIa] | – | 60000 M⁻¹ | 30 % @ 6*10^-4M | –
COc1cc(CC2COC(C)(C)OCC2Cc2ccc(O)c(OC)c2)ccc1O (centres unmarked) [III'a] | – | – | – | 75 % @ 6.2*10^-4M

Reference: patent EP0797564B1, “LIGNANS, A PROCESS FOR THEIR PRODUCTION AND PHARMACEUTICAL COMPOSITIONS AND USES THEREOF” (KANOLDT ARZNEIMITTEL GMBH, priority 1995, dated 1997)
